# According to US10945980B2, “Treatment for myopia” (The University of Newcastle, priority 2016, dated 2021):
# Assays:
# Format in all cases: in vivo, guinea pig (Cavia porcellus)
# [1] = tested on: form deprivation myopia in guinea pigs; test: Intravitreal L-arginine in form deprivation (FD) myopia, 3 days diffuser wear
# Experimental: Fifty-seven pigmented guinea pigs (Cavia porcellus) were sourced from the University of Newcastle and housed as described in Example 1. Animals were provided with food and water ad libitum and the room temperature was maintained at 22° C. The University of Newcastle under Australian legislative requirements approved all procedures.
# Animals wore classical form diffusers made of translucent moulded Perspex (0.8 mm thickness, 24% transmission) on their right eyes. Diffusers were mounted onto plastic washers backed with Velcro® and attached to mating Velcro® arcs which were affixed above and below the eye.
# Animals were assigned to one of seven treatment groups (Table 1). From seven days of age, five of these groups were form deprived in the right eye for 3 days with a diffuser (two groups wore no diffusers and served as controls for form deprived animals). Six groups of animals were intravitreally injected with either L-arginine or physiological saline once per day, just before lights came on at 10 am. One group wore diffusers, but received no injection as a control. At ten days of age, cycloplegia was induced in all animals and refractive error and ocular components were measured. Two retinas, one a saline control and another that had been injected with the highest dose of L-arginine, were analysed by histochemistry for morphological markers of L-arginine induced toxicity.
# To establish the size of the guinea pig vitreous, and thus the molarity of the substrate within the eye, ten vitreous chambers were extracted from ten eyes. The volume of the vitreous was 125 μl. Based on this, three drug doses of L-arginine were employed: low (0.4 mM), medium (2.2 mM) and high (non-toxic: 9.3 mM) (See Table 1). A 30 gauge Hamilton syringe was used to slowly inject into the vitreous through the temporal sclera of right eyes, approximately 2 mm posterior to the limbus. All injections were 10 μl of either physiological saline (0.9%) or L-arginine dissolved in saline (pH 7.4 for all injections).
# Cycloplegia was induced as described in Example 1, and refractive error subsequently measured as described in Example 1.
# Ocular length and axial components were also determined as described in Example 1.
# The data presented are means±standard errors of the mean. All figures and statistics are based on the difference between the lens-wearing eye and the fellow non lens-wearing eye and are referred to as relative refractive error and relative ocular distances. Statistical comparisons between lens wearing groups were based on one way ANOVAs followed by Holm-Sidak post hoc tests to account for family-wise error. Correlations were based on Pearson's regression analysis. Statistical analysis used Prism®, Graph Pad Software, Inc. V 6.
# [2] = tested on: lens-induced myopia in guinea pigs; test: Intravitreal L-arginine in lens-induced (−6D) myopia, 3 days; details: 0.2 mM L-arginine daily intravitreal at 7, 8, 9 days of age, −6D lens 3 days; not significant p=0.169
# [3] = tested on: form deprivation myopia in guinea pigs; test: Oral (gavage) L-arginine in form deprivation myopia
# Description: Guinea pigs (pigmented variety, Cavia porcellus) were bred, housed, and raised as described in Example 1. The University of Newcastle Animal Care and ethics Committee approved all procedures.
# Two experimental protocols were employed (Table 3). In Experiment 1, 12 animals wore a diffuser over one eye (form-deprivation, FD) for […]. This period reliably induces myopia in the deprived eye compared to the untreated fellow eye. Seven of these animals also concurrently received a single gavage of L-arginine (200 mg/kg/day) each day at 9:30 am while briefly anaesthetised. […]
# At the end of the FD period, at 12 days of age (Experiment 1) or at […] (Experiment 2), after the morning gavage treatment, both eyes were cyclopleged and 1.25 hours later, refractive error was measured. […]
# After cycloplegia was induced, refractive error was measured in each eye using streak retinoscopy as previously described (Howlett and McFadden, 2007; McFadden et al., 2004). The spherical equivalent was calculated as the average of the horizontal and vertical meridians (see Howlett and McFadden, 2006). Next, ocular length was measured using high frequency ultrasound (20 MHz) as previously described (McFadden et al, 2004). At least 20 traces were recorded for each eye and distances were averaged for at least 10 of these recordings. […]
structure (smiles),measurement,setting,value
N=C(N)NCCC[C@H](N)C(=O)O [L-arginine],relative refractive error compared with animals that had no form deprivation,"[1]; FD 2.2 mM and FD 9.3 mM groups, daily intravitreal injection, 3 days FD",not significantly different from animals that had no form deprivation
same,"ocular length, shortening relative to FD NIL","[1]; FD 9.3 mM (high dose, intravitreal) vs form deprivation only, p<0.001",−484 μm
same,"vitreous chamber depth, difference FD 0 mM vs FD 9.3 mM","[1]; FD + vehicle vs FD + 9.3 mM L-arginine, did not reach significance, p=0.12",215 μm
same,"choroid thickness, FD 0 mM thinner than FD 9.3 mM","[1]; FD + vehicle vs FD + 9.3 mM L-arginine, not significant, p=0.14",31 μm
same,"ocular length, FD 0 mM greater than FD 9.3 mM","[1]; FD + vehicle vs FD + high dose L-arginine 9.3 mM intravitreal, p<0.001",403 μm
same,"vitreous chamber depth, FD NIL longer than FD 9.3 mM","[1]; form deprivation only vs FD + 9.3 mM L-arginine intravitreal, p<0.001",484 μm
same,"choroid thickness, difference FD NIL vs FD 9.3 mM","[1]; form deprivation only vs FD + 9.3 mM L-arginine intravitreal, p=0.03",−39 μm
same,interocular difference in refractive error (lens-wearing eye more hyperopic than fellow eye),[2],2.00 D
same,relative elongation (FD eye vs untreated eye),"[3]; Experiment 1: 200 mg/kg once daily gavage, 7 days FD, p=0.714",42±30 μm
same,eye lengths vs animals only fed water,"[3]; Experiment 2: 25 mg/kg twice daily gavage, 3 days FD, both the FD eye and the fellow eye",smaller eye lengths than animals only fed water
